Results: patent publication US6878713B2, “Generation triple-targeting, chiral, broad-spectrum antimicrobial 7-substituted piperidino-quinolone carboxylic acid derivatives, their preparation, compositions and use as medicaments” (Wockhardt Limited, priority 2001, dated 2005)

Compound | melting point
COc1c(N2CCC(N(C)C)C(C)C2)c(F)c(N)c2c(=O)c(C(=O)O)cn(C3CC3)c12 (stereo not drawn) [Compound 63, 5-Amino-1-cyclopropyl-6-fluoro-1,4-dihydro-8-methoxy-7-(4-dimethylamino-3-methyl-1-piperidinyl)-4-oxo-quinoline-3-carboxylic acid] | 210 °C
COc1c(N2CCC(N)C(C)(C)C2)c(F)c(N)c2c(=O)c(C(=O)O)cn(C3CC3)c12 (stereo not drawn) [Compound 68, 5-Amino-1-cyclopropyl-6-fluoro-1,4-dihydro-8-methoxy-7-(4-amino-3,3-dimethyl-1-piperidinyl)-4-oxo-quinoline-3-carboxylic acid] | 205 °C
CNC1CCN(c2c(F)c(N)c3c(=O)c(C(=O)O)cn(C4CC4)c3c2OC)CC1(C)C (stereo not drawn) [Compound 73, 5-Amino-1-cyclopropyl-6-fluoro-1,4-dihydro-8-methoxy-7-(4-methylamino-3,3-dimethyl-1-piperidinyl)-4-oxo-quinoline-3-carboxylic acid] | 250 °C (dec.)
CCNC1CCN(c2c(F)c(N)c3c(=O)c(C(=O)O)cn(C4CC4)c3c2OC)CC1(C)C (stereo not drawn) [Compound 74, 5-Amino-1-cyclopropyl-6-fluoro-1,4-dihydro-8-methoxy-7-(4-ethylamino-3,3-dimethyl-1-piperidinyl)-4-oxo-quinoline-3-carboxylic acid] | 205 °C (dec.)
COc1c(N2CCC(N(C)C)C(C)(C)C2)c(F)c(N)c2c(=O)c(C(=O)O)cn(C3CC3)c12 (stereo not drawn) [Compound 76, 5-Amino-1-cyclopropyl-6-fluoro-1,4-dihydro-8-methoxy-7-(4-dimethylamino-3,3-dimethyl-1-piperidinyl)-4-oxo-quinoline-3-carboxylic acid] | 178 °C (dec.)
CCC1(C)CN(c2c(F)c(N)c3c(=O)c(C(=O)O)cn(C4CC4)c3c2OC)CCC1N (stereo not drawn) [Compound 77, 5-Amino-1-cyclopropyl-6-fluoro-1,4-dihydro-8-methoxy-7-(4-amino-3-ethyl-3-methyl-1-piperidinyl)-4-oxo-quinoline-3-carboxylic acid] | 210 °C (dec.)
CCC1(C)CN(c2c(F)c(N)c3c(=O)c(C(=O)O)cn(C4CC4)c3c2OC)CCC1NC (stereo not drawn) [Compound 78, 5-Amino-1-cyclopropyl-6-fluoro-1,4-dihydro-8-methoxy-7-(4-methylamino-3-ethyl-3-methyl-1-piperidinyl)-4-oxo-quinoline-3-carboxylic acid] | 164 to 166 °C
CCC1(C)CN(c2c(F)c(N)c3c(=O)c(C(=O)O)cn(C4CC4)c3c2OC)CCC1NC1CC1 (stereo not drawn) [Compound 79, 5-Amino-1-cyclopropyl-6-fluoro-1,4-dihydro-8-methoxy-7-(4-cyclopropylamino-3-methyl-3-ethyl-1-piperidinyl)-4-oxo-quinoline-3-carboxylic acid] | 186 to 188 °C
CCC1(C)CN(c2c(F)c(N)c3c(=O)c(C(=O)O)cn(C4CC4)c3c2OC)CCC1N(C)C (stereo not drawn) [Compound 80, 5-Amino-1-cyclopropyl-6-fluoro-1,4-dihydro-8-methoxy-7-(4-dimethylamino-3-methyl-3-ethyl-1-piperidinyl)-4-oxo-quinoline-3-carboxylic acid] | 194 to 196 °C
CNC1C(C)CN(c2c(F)c(N)c3c(=O)c(C(=O)O)cn(C4CC4)c3c2OC)CC1C (stereo not drawn) [Compound 83, 5-Amino-1-cyclopropyl-6-fluoro-1,4-dihydro-8-methoxy-7-(4-methylamino-3,5-dimethyl-1-piperidinyl)-4-oxo-quinoline-3-carboxylic acid] | 224 to 226 °C
COc1c(N2CC(C)C(N)C(C)(C)C2)c(F)c(N)c2c(=O)c(C(=O)O)cn(C3CC3)c12 (stereo not drawn) [Compound 87, 5-Amino-1-cyclopropyl-6-fluoro-1,4-dihydro-8-methoxy-7-(4-amino-3,3,5-trimethyl-1-piperidinyl)-4-oxo-quinoline-3-carboxylic acid] | 248 to 252 °C

The remaining lines, values ahead:

melting point | Compound
233 to 235 °C | CNC1CCN(c2c(F)cc3c(=O)c(C(=O)O)cn(C4CC4)c3c2C)CC1C (stereo not drawn) [Compound 113, 1-Cyclopropyl-6-fluoro-1,4-dihydro-8-methyl-7-(4-methylamino-3-methyl-1-piperidinyl)-4-oxo-quinoline-3-carboxylic acid]
201 to 203 °C | CCNC1CCN(c2c(F)cc3c(=O)c(C(=O)O)cn(C4CC4)c3c2C)CC1(C)C (stereo not drawn) [Compound 115, 1-Cyclopropyl-6-fluoro-1,4-dihydro-8-methyl-7-(4-ethylamino-3,3-dimethyl-1-piperidinyl)-4-oxo-quinoline-3-carboxylic acid]
209 to 210 °C | Cc1c(N2CCC(N(C)C)C(C)(C)C2)c(F)cc2c(=O)c(C(=O)O)cn(C3CC3)c12 (stereo not drawn) [Compound 116, 1-Cyclopropyl-6-fluoro-1,4-dihydro-8-methyl-7-(4-dimethylamino-3,3-dimethyl-1-piperidinyl)-4-oxo-quinoline-3-carboxylic acid]
248 to 249 °C | CCc1c(N2CCC(N)CC2)c(F)cc2c(=O)c(C(=O)O)cn(C3CC3)c12 [Compound 117, 1-Cyclopropyl-6-fluoro-8-ethyl-7-(4-amino-1-piperidinyl)-1,4-dihydro-4-oxo-quinoline-3-carboxylic acid]
240 to 244 °C | COc1c(N2CCC(O)C(C)C2)c(F)c(N)c2c(=O)c(C(=O)O)cn(C3CC3)c12 (stereo not drawn) [Compound 135, 5-Amino-1-cyclopropyl-6-fluoro-1,4-dihydro-8-methoxy-7-(4-hydroxy-3-methyl-1-piperidinyl)-4-oxo-quinoline-3-carboxylic acid]
188 to 190 °C | CCC1CN(c2c(F)cc3c(=O)c(C(=O)O)cn(C4CC4)c3c2OC)CCC1O (stereo not drawn) [Compound 136, 1-Cyclopropyl-6-fluoro-1,4-dihydro-8-methoxy-7-(4-hydroxy-3-ethyl-1-piperidinyl)-4-oxo-quinoline-3-carboxylic acid]
217 to 219 °C | CCC1CN(c2c(F)c(N)c3c(=O)c(C(=O)O)cn(C4CC4)c3c2OC)CCC1O (stereo not drawn) [Compound 137, 5-Amino-1-cyclopropyl-6-fluoro-1,4-dihydro-8-methoxy-7-(4-hydroxy-3-ethyl-1-piperidinyl)-4-oxo-quinoline-3-carboxylic acid]
238 to 240 °C | COc1c(N2CC(C)C(N)C(C)C2)c(F)cc2c(=O)c(C(=O)O)cn(C3CC3)c12 (stereo not drawn) [Example 33, 1-cyclopropyl-6-fluoro-1,4-dihydro-8-methoxy-7-(4-amino-3,5-dimethyl-1-piperidinyl)-4-oxo-quinoline-3-carboxylic acid]
200 to 204 °C | COc1c(N2CC(C)C(N)C(C)C2)c(F)cc2c(=O)c(C(=O)O)cn(C3CC3)c12 (stereo not drawn) [Example 34, 1-cyclopropyl-6-fluoro-1,4-dihydro-8-methoxy-7-(4-amino-3,5-dimethyl-1-piperidinyl)-4-oxo-quinoline-3-carboxylic acid]
250 to 252 °C | CCNC1C(C)CN(c2c(F)cc3c(=O)c(C(=O)O)cn(C4CC4)c3c2OC)CC1C (stereo not drawn) [Example 38, 1-cyclopropyl-6-fluoro-1,4-dihydro-8-methoxy-7-(4-ethylamino-3,5-dimethyl-1-piperidinyl)-4-oxo-quinoline-3-carboxylic acid]
250 to 255 °C | CCNC1C(C)CN(c2c(F)cc3c(=O)c(C(=O)O)cn(C4CC4)c3c2OC)CC1C (stereo not drawn) [Example 39, 1-cyclopropyl-6-fluoro-1,4-dihydro-8-methoxy-7-(4-ethylamino-3,5-dimethyl-1-piperidinyl)-4-oxo-quinoline-3-carboxylic acid]
240 to 242 °C | COc1c(N2CC(C)C(NC3CC3)C(C)C2)c(F)cc2c(=O)c(C(=O)O)cn(C3CC3)c12 (stereo not drawn) [Example 41, 1-cyclopropyl-6-fluoro-1,4-dihydro-8-methoxy-7-(4-cyclopropylamino-3,5-dimethyl-1-piperidinyl)-4-oxo-quinoline-3-carboxylic acid]
248 to 250 °C (dec.) | COc1c(N2CC(C)C(N)C(C)C2)c(F)c(N)c2c(=O)c(C(=O)O)cn(C3CC3)c12 (stereo not drawn) [Example 53, 5-Amino-1-cyclopropyl-6-fluoro-1,4-dihydro-8-methoxy-7-(4-amino-3,5-dimethyl-1-piperidinyl)-4-oxo-quinoline-3-carboxylic acid]
202 to 204 °C | CCNC1C(C)CN(c2c(F)c(N)c3c(=O)c(C(=O)O)cn(C4CC4)c3c2OC)CC1C (stereo not drawn) [Example 57, 5-amino-1-cyclopropyl-6-fluoro-1,4-dihydro-8-methoxy-7-(4-ethylamino-3,5-dimethyl-1-piperidinyl)-4-oxo-quinoline-3-carboxylic acid]
255 to 258 °C | CCNC1C(C)CN(c2c(F)c(N)c3c(=O)c(C(=O)O)cn(C4CC4)c3c2OC)CC1C (stereo not drawn) [Example 58, 5-amino-1-cyclopropyl-6-fluoro-1,4-dihydro-8-methoxy-7-(4-ethylamino-3,5-dimethyl-1-piperidinyl)-4-oxo-quinoline-3-carboxylic acid]
248 °C | COc1c(N2CC(C)C(NC3CC3)C(C)C2)c(F)c(N)c2c(=O)c(C(=O)O)cn(C3CC3)c12 (stereo not drawn) [Example 60, 5-Amino-1-cyclopropyl-6-fluoro-1,4-dihydro-8-methoxy-7-(4-cyclopropylamino-3,5-dimethyl-1-piperidinyl)-4-oxo-quinoline-3-carboxylic acid]
